Measurements: US12605411B2, “Phospholipid compositions for delivery of therapeutic compounds” (Aker BioMarine Human Ingredients AS, priority 2022, dated 2026)
Converted amounts (≈) assume the structure as drawn.

What was measured:
[1] = humans, taken orally; cited from earlier work
[2] = Plasma CBD concentration after dosing (FIG. 5); type: in vivo
[3] = CoQ10 absorption in plasma after single dose, clinical study; type: in vivo, human
Method: The purpose of the study was to investigate compare the CoQ10 level of absorption in the plasma of a phospholipid krill oil+CoQ10 product to a comparator CoQ10-product (without any krill oil).
Absorption levels of CoQ10 in plasma were measured at time (T)=0, 2, 4, 6 and 8 hours after the single-dose (2 soft gels) intake of the study products. A 7-day minimum washout period between the two doses was specified.
A total of 13 subjects successfully completed the study.

[4] = cited from earlier work
[5] = cited from earlier work; remark: listed apart in the source

For `C=C(C)[C@@H]1CCC(C)=C[C@H]1c1c(O)cc(CCCCC)cc1O` [CBD, Cannabidiol], the bioavailability [1] is listed as “around 6%”, the “increase of bioavailability of CBD” value ([2]; krill oil compared to MCT, FIG. 5) is listed as 3 fold and the “absorption of CBD (plasma CBD concentration)” value ([2]; krill oil vs medium chain triglyceride (MCT) oil) is listed as “much greater extent”.

In the case of `COC1=C(OC)C(=O)C(C/C=C(\C)CC/C=C(\C)CC/C=C(\C)CC/C=C(\C)CC/C=C(\C)CC/C=C(\C)CC/C=C(\C)CC/C=C(\C)CC/C=C(\C)CCC=C(C)C)=C(C)C1=O` [CoQ10, Coenzyme Q10], the “absorption of CoQ10 in plasma, change from baseline (in words)” value ([3]; 0-8 hours after single dose, 13 subjects) is reported as “No significant absorption”, the “Change of plasma CoQ10 from baseline” value ([3]; 2 hours) is reported as −11.49% and the “Change of plasma CoQ10 from baseline” value ([3]; 4 hours) is reported as −4.53%. For the same molecule, the “Change of plasma CoQ10 from baseline” value ([3]; 6 hours) was 1.71%, the “Change of plasma CoQ10 from baseline” value ([3]; 8 hours) was 6.15% and the concentration at 2 h ([3]; human, plasma, oral, 2 soft gels, 2 hours after single dose) was 8780 ng/mL. For the same molecule, the concentration at 4 h ([3]; human, plasma, oral, 2 soft gels, 4 hours after single dose) was 9570 ng/mL, the concentration at 6 h ([3]; human, plasma, oral, 2 soft gels, 6 hours after single dose) was 10100 ng/mL and the concentration at 8 h ([3]; human, plasma, oral, 2 soft gels, 8 hours after single dose) was 10500 ng/mL. The concentration at 0 h ([3]; human, plasma, oral, 2 soft gels, Baseline) was 9920 ng/mL.

For `O=c1c(O)c(-c2ccc(O)c(O)c2)oc2cc(O)ccc12` [Fisetin], the logP [4] is listed as 1.81-2.03, the solubility [5] is listed as less than 1000 µg/mL and the Solubility ethanol [5] is listed as 5000 µg/mL (≈ 17.5 mM). For the same molecule, the Solubility water ([5]; water) was 150 µg/mL (≈ 0.524 mM).

For `O=c1c(O)c(-c2ccc(O)c(O)c2)oc2cc(O)cc(O)c12` [Quercetin], the logP [4] is listed as 1.50 and the Solubility ethanol [5] is listed as 2000 µg/mL (≈ 6.62 mM).
